Data on 4 molecules can be found in US20250221410A1, “SUBSTITUTED 2-C-AZINES AND SALTS THEREOF, AND USE THEREOF AS HERBICIDAL ACTIVE SUBSTANCES” (BAYER AKTIENGESELLSCHAFT, priority 2022, published 2025).

Assay type in all cases: in vivo
For experiment [1], the system named is ABUTH: Abutilon theophrasti. In words: Post-emergence herbicidal efficacy at 1280 g/ha, ABUTH. The note with it: rated visually after about 3 weeks vs untreated controls, 100% = plants have died, 0% = like control plants. The essentials:
(§1)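 Greenhouse pot test in sandy loam. Plants at the one-leaf stage, 2–3 weeks after sowing, were sprayed post-emergence with WP or EC formulations in water containing 0.5% additive, at 600 L/ha. Activity was scored visually about 3 weeks later against untreated controls (100% = dead, 0% = as control).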

Experiment [2] relates to ALOMY: Alopecurus myosuroides. As to the kind of experiment: Post-emergence herbicidal efficacy at 1280 g/ha, ALOMY. To be noted: rated visually after about 3 weeks vs untreated controls, 100% = plants have died, 0% = like control plants. As to the method: (§2) Seeds of mono- and dicotyledonous weed plants were placed in plastic pots in sandy loam soil (doubly sown with in each case one species of mono- or dicotyledonous weed plants per pot), covered with soil and cultivated in a greenhouse under controlled growth conditions. 2 to 3 weeks after sowing, the test plants were treated at the one-leaf stage. The compounds of the invention, formulated in the form of wettable powders (WP) or as emulsion concentrates (EC), were applied to the green parts of the plants as aqueous suspension or emulsion with addition of 0.5% additive at a water application rate equivalent to 600 litres per hectare. After the test plants had been kept in the greenhouse under optimum growth conditions for about 3 weeks, the activity of the preparations was rated visually in comparison to untreated controls. For example, 100% activity=the plants have died, 0% activity=like control plants. Tables A1 to A12 below show the effects of selected compounds of the general formula (I) according to Table 1 on various harmful plants and at an application rate corresponding to 1280 g/ha, which were obtained by the trial procedure specified above.

Experiment [3] relates to AMARE: Amaranthus retroflexus. In words: Post-emergence herbicidal efficacy at 1280 g/ha, AMARE. The note with it: rated visually after about 3 weeks vs untreated controls, 100% = plants have died, 0% = like control plants. The essentials:
as §1

Experiment [4] has as its system ECHCG: Echinochloa crus-galli. In words: Post-emergence herbicidal efficacy at 1280 g/ha, ECHCG. The note with it: rated visually after about 3 weeks vs untreated controls, 100% = plants have died, 0% = like control plants. The essentials: as §1
The subject of experiment [5] is KCHSC: Kochia scoparia. As to the kind of experiment: Post-emergence herbicidal efficacy at 1280 g/ha, KCHSC. To be noted: visual rating about 3 weeks after treatment vs untreated controls. In short, it runs like this: as §1
The subject of the next experiment is VIOTR: Viola tricolor. In words: Post-emergence herbicidal efficacy at 80 g/ha, VIOTR. To be noted: visual rating about 3 weeks after treatment vs untreated controls. The essentials: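 Visual percent activity versus untreated plants (100% = plants died) was scored roughly 3 weeks after treatment. Plants grew in greenhouse pots of sandy loam and got a post-emergence spray at one-leaf stage: WP or EC compound with 0.5% additive, 600 l/ha water.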

The test system of experiment [6] is ABUTH: Abutilon theophrasti. As to the kind of experiment: Pre-emergence herbicide efficacy at 1280 g/ha, ABUTH. The note with it: visual scoring after about 3 weeks vs untreated controls. In short, it runs like this:
(§3)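 Seeds sown in sandy loam in pots and covered; compounds as WP or EC applied to covering soil surface as aqueous suspension/emulsion with 0.5% additive at 600 L/ha water. Greenhouse growth ~3 weeks, then visual % efficacy vs untreated controls (100% = plants dead, 0% = like control).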

Experiment [7] deals with ALOMY: Alopecurus myosuroides. As to the kind of experiment: Pre-emergence herbicide efficacy at 1280 g/ha, ALOMY. The note with it: visual scoring after about 3 weeks vs untreated controls. The essentials: as §3
The subject of experiment [8] is ECHCG: Echinochloa crus-galli. In words: Pre-emergence herbicide efficacy at 1280 g/ha, ECHCG. To be noted: visual scoring after about 3 weeks vs untreated controls. The essentials: as §3
The test system of experiment [9] is KCHSC: Kochia scoparia. As to the kind of experiment: Pre-emergence herbicide efficacy at 1280 g/ha, KCHSC. To be noted: visual scoring after about 3 weeks vs untreated controls. In short, it runs like this:
as §3

The subject of experiment [10] is ALOMY: Alopecurus myosuroides. As to the kind of experiment: Pre-emergence herbicide efficacy at 80 g/ha, ALOMY. To be noted: scored visually after about 3 weeks. An excerpt:
(§4) Seeds of monocotyledonous and dicotyledonous weed plants and crop plants were placed in plastic or organic planting pots and covered with soil. The compounds of the invention, formulated in the form of wettable powders (WP) or as emulsion concentrates (EC), were then applied to the surface of the covering soil as aqueous suspension or emulsion with addition of 0.5% additive at a water application rate equivalent to 600 l/ha. After the treatment, the pots were placed in a greenhouse and kept under good growth conditions for the test plants. After about 3 weeks, the efficacy of the preparations was scored visually in comparison with untreated controls as percentages. For example, 100% activity=the plants have died, 0% activity=like control plants. Tables D1 to D12 below show the effects of selected compounds of the general formula (I) according to Table 1 on various harmful plants and an application rate corresponding to 80 g/ha, which were obtained by the experimental procedure mentioned above.

Experiment [11] deals with ECHCG: Echinochloa crus-galli. As to the kind of experiment: Pre-emergence herbicide efficacy at 80 g/ha, ECHCG. To be noted: scored visually after about 3 weeks.
Text: as §4

For another experiment, the system named is POLCO. In words: Pre-emergence herbicide efficacy at 80 g/ha, POLCO. The note with it: Polygonum convolvulus, scored visually after about 3 weeks. The essentials:
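Weed seeds sown in pots and covered with soil; compounds formulated as WP or EC were sprayed onto the soil surface as aqueous suspension/emulsion with 0.5% additive at 600 l/ha water. Pots kept in greenhouse; efficacy scored visually after about 3 weeks versus untreated controls (0% = like control, 100% = plants dead).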

A further experiment concerns LOLRI: Lolium rigidum. In words: Post-emergence herbicidal efficacy at 1280 g/ha, LOLRI. The note with it: visual rating about 3 weeks after treatment vs untreated controls. As to the method: as §2
Experiment [12] relates to KCHSC: Kochia scoparia. As to the kind of experiment: Post-emergence herbicidal efficacy at 80 g/ha, KCHSC. To be noted: visual rating about 3 weeks after treatment vs untreated controls. As to the method: (§5) Seeds of monocotyledonous and dicotyledonous weeds and crop plants were placed in sandy loam in plastic or organic planting pots, covered with soil and cultivated in a greenhouse under controlled growth conditions. 2 to 3 weeks after sowing, the test plants were treated at the one-leaf stage. The compounds of the invention, formulated in the form of wettable powders (WP) or as emulsion concentrates (EC), were then sprayed onto the green parts of the plants as aqueous suspension or emulsion with addition of 0.5% additive at a water application rate of 600 l/ha (converted). After the test plants had been kept in the greenhouse under optimum growth conditions for about 3 weeks, the activity of the preparations was rated visually in comparison to untreated controls. For example, 100% activity=the plants have died, 0% activity=like control plants. Tables B1 to B10 below show the effects of selected compounds of the general formula (I) according to Table 1 on various harmful plants and an application rate corresponding to 80 g/ha, which were obtained by the experimental procedure mentioned above.

Experiment [13] has as its system MATIN: Matricaria inodora. In words: Post-emergence herbicidal efficacy at 1280 g/ha, MATIN. To be noted: visual rating about 3 weeks after treatment vs untreated controls. As to the method: as §2
Experiment [14] has as its system ABUTH: Abutilon theophrasti. In words: Post-emergence herbicidal efficacy at 80 g/ha, ABUTH. The note with it: rated visually after about 3 weeks vs untreated controls, 100% = plants have died, 0% = like control plants. The protocol:
as §5

Consider `Fc1cnc(Oc2cccc(Br)c2Cc2ncc(Cl)cn2)nc1` [Example 1-54], for which the “Post-emergence efficacy at 1280 g/ha against ABUTH in %” value in [1] is 100%. In experiment [2], the “Post-emergence efficacy at 1280 g/ha against ALOMY in %” value stood at 90%. The “Post-emergence efficacy at 1280 g/ha against AMARE in %” value in [3] came to 100%. The “Post-emergence efficacy at 1280 g/ha against ECHCG in %” value in [4] was found to be 100%. Further, in the experiment on KCHSC: Kochia scoparia [5], the “Post-emergence efficacy against KCHSC” value turned out to be 100%. Further, the “Post-emergence efficacy against VIOTR” value with VIOTR: Viola tricolor is recorded as 100%. The “Pre-emergence efficacy against ABUTH” value in experiment [6] stood at 100%. Further, in experiment [7], the “Pre-emergence efficacy against ALOMY” value is 90%. In addition, in experiment [8], the “Pre-emergence efficacy against ECHCG” value came out at 100%. The “Pre-emergence efficacy against KCHSC” value with KCHSC: Kochia scoparia [9] turned out to be 100%. In addition, the “Pre-emergence efficacy against ALOMY in %” value in [10] came to 80%. Further, in [11], the “Pre-emergence efficacy against ECHCG in %” value amounted to 100%. Also, the “Pre-emergence efficacy against POLCO in %” value in the experiment with POLCO worked out at 80%.
Turning to `Clc1cnc(Cc2c(Cl)cccc2Oc2ncc(Cl)cn2)nc1` [Example 1-56], in experiment [1], the “Post-emergence efficacy at 1280 g/ha against ABUTH in %” value is 90%. In [3], the “Post-emergence efficacy at 1280 g/ha against AMARE in %” value stood at 90%. In experiment [4], the “Post-emergence efficacy at 1280 g/ha against ECHCG in %” value stood at 90%. Also, the “Post-emergence efficacy against KCHSC” value with KCHSC: Kochia scoparia [5] was found to be 90%; with KCHSC: Kochia scoparia [12], 80%. The “Post-emergence efficacy against LOLRI” value in the experiment on LOLRI: Lolium rigidum is reported as 90%. The “Post-emergence efficacy against VIOTR” value in the experiment on VIOTR: Viola tricolor was found to be 100%. Also, the “Pre-emergence efficacy against ABUTH” value in [6] was found to be 100%. Moreover, the “Pre-emergence efficacy against ALOMY” value in [7] is recorded as 100%. Moreover, in experiment [8], the “Pre-emergence efficacy against ECHCG” value was 100%. In the experiment on KCHSC: Kochia scoparia [9], the “Pre-emergence efficacy against KCHSC” value was 100%. In addition, in experiment [11], the “Pre-emergence efficacy against ECHCG in %” value stood at 80%. Further, the “Pre-emergence efficacy against POLCO in %” value in the experiment with POLCO came to 90%.
For the molecule `N#Cc1cccc(Oc2ncc(F)cn2)c1Cc1ncc(Cl)cn1` [Example 1-59], the “Post-emergence efficacy at 1280 g/ha against ABUTH in %” value in [1] was 100%. In addition, in experiment [3], the “Post-emergence efficacy at 1280 g/ha against AMARE in %” value worked out at 100%. The “Post-emergence efficacy at 1280 g/ha against ECHCG in %” value in [4] is 90%. Further, the “Post-emergence efficacy against KCHSC” value in the experiment on KCHSC: Kochia scoparia [5] is given as 100%; with KCHSC: Kochia scoparia [12], 90%. Also, in experiment [13], the “Post-emergence efficacy against MATIN” value came to 100%. Also, the “Post-emergence efficacy against VIOTR” value in the experiment with VIOTR: Viola tricolor amounted to 100%. For the same molecule, the “Pre-emergence efficacy against ABUTH” value in experiment [6] is given as 100%. Also, the “Pre-emergence efficacy against ALOMY” value in experiment [7] is on record as 100%. For the same molecule, the “Pre-emergence efficacy against ECHCG” value in experiment [8] was 100%. In addition, in the experiment with KCHSC: Kochia scoparia [9], the “Pre-emergence efficacy against KCHSC” value came out at 100%. For the same molecule, the “Pre-emergence efficacy against ALOMY in %” value in [10] is listed as 80%. Besides, the “Pre-emergence efficacy against ECHCG in %” value in experiment [11] was found to be 100%. Also, the “Pre-emergence efficacy against POLCO in %” value in the experiment with POLCO is 90%.
On to `FC(F)c1cc(-c2ccccc2Cc2ncc(Cl)cn2)on1` [Example 1-133], for which the “Post-emergence efficacy at 1280 g/ha against ABUTH in %” value in experiment [1] is recorded as 100%. In experiment [2], the “Post-emergence efficacy at 1280 g/ha against ALOMY in %” value is recorded as 90%. Moreover, the “Post-emergence efficacy at 1280 g/ha against AMARE in %” value in experiment [3] turned out to be 100%. Further, the “Post-emergence efficacy at 1280 g/ha against ECHCG in %” value in [4] was determined as 100%. Moreover, the “Post-emergence efficacy against KCHSC” value in the experiment on KCHSC: Kochia scoparia [5] and in the experiment with KCHSC: Kochia scoparia [12] was 100% each time. Also, in the experiment with LOLRI: Lolium rigidum, the “Post-emergence efficacy against LOLRI” value worked out at 100%. For the same molecule, the “Post-emergence efficacy at 80 g/ha against ABUTH in %” value in [14] was 80%. Besides, in the experiment with VIOTR: Viola tricolor, the “Post-emergence efficacy against VIOTR” value came to 100%. In addition, the “Pre-emergence efficacy against ABUTH” value in [6] turned out to be 100%. In addition, the “Pre-emergence efficacy against ALOMY” value in [7] is reported as 100%. In addition, the “Pre-emergence efficacy against ECHCG” value in experiment [8] is given as 100%. Further, in the experiment with KCHSC: Kochia scoparia [9], the “Pre-emergence efficacy against KCHSC” value is reported as 100%. Moreover, the “Pre-emergence efficacy against ECHCG in %” value in experiment [11] was determined as 80%. In the experiment on POLCO, the “Pre-emergence efficacy against POLCO in %” value was determined as 80%.
